# Experimental data from US10328054B2, “Substituted pyrrolidines as mGluR5 antagonists” (Hua Medicine (Shanghai) Ltd., priority 2015, dated 2019).
# Target: recombinant rat mGluR5 (Rattus norvegicus (Rat), UniProt P31424)
# Test: Functional calcium flux assay (FLIPR)
# Type: cell-based
# Conditions: HEK293 cells stably expressing recombinant rat mGluR5; inhibition of glutamate-evoked [Ca2+]i increase, 15 min incubation of test compound
# Experimental: For functional assays, HEK293 cells stably expressing recombinant rat mGluR5 were seeded in 384-well plates and dye loaded using Fluo-8. Cells were then washed to remove the un-incorporated dye. Antagonist evaluation was performed following a 15 min incubation of the test compound followed by the addition of submaximal concentration of glutamate. Intracellular calcium ([Ca^2+]i) measurements were performed using a fluorometric imaging plate reader (FLIPR, Molecular Devices). The glutamate-evoked increase in [Ca^2+]i in the presence of the test compounds was compared to the response to glutamate alone (the positive control). Antagonist inhibition curves were fitted with a 4-parameter logistic equation giving IC50 values, and Hill coefficients using an iterative nonlinear curve fitting algorithm.
# The tables below provide IC50 data in this assay. In the activity column, A=IC50>1,000 and <5,000 nM; B=IC50>500 and <1,000 nM and C=IC50<500 nM.
# Chain of recombinant rat mGluR5 (P31424 21-1203): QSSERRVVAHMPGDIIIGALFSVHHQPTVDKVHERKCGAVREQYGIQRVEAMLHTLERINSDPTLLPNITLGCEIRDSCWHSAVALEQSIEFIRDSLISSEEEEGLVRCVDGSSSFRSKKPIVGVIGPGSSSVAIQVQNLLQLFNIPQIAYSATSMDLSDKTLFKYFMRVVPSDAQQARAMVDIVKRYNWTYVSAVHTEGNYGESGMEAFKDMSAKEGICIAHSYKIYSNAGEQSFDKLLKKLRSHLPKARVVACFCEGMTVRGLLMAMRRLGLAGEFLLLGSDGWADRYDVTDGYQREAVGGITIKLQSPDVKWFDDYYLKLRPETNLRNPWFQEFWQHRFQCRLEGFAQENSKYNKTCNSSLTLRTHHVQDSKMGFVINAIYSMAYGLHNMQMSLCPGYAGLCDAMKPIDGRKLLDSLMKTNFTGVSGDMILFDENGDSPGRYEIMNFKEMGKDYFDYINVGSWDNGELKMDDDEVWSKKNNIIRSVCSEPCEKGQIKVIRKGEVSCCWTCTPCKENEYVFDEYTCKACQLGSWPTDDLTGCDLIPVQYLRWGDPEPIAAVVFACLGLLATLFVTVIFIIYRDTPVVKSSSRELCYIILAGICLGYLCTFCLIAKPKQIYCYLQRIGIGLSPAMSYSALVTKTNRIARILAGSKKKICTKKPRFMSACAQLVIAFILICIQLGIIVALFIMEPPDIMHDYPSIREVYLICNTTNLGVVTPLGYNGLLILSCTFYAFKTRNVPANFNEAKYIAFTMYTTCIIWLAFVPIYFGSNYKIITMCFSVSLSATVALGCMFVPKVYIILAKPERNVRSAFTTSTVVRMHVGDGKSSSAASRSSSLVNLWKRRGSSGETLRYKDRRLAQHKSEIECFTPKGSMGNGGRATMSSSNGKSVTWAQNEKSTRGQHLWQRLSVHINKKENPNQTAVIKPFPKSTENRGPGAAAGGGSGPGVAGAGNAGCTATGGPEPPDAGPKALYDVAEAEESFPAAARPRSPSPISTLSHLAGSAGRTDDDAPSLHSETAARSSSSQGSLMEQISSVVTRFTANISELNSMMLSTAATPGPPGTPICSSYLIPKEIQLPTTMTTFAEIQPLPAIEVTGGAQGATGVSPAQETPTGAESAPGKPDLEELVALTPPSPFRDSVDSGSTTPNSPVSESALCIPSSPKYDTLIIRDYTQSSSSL
row,SMILES,IC50 [nM]
1,"O=S(=O)(c1ccccc1Cl)N1CC2CC2(C#Cc2ccccn2)C1 (stereo not drawn) [Example Compound 36, 3-((2-chlorophenyl)sulfonyl)-1-(pyridin-2-ylethynyl)-3-azabicyclo[3.1.0]hexane]",< 500
2,"N#Cc1cccc(N2CC3CC3(C#Cc3ccccn3)C2)n1 (stereo not drawn) [Example Compound 38, 6-(1-(pyridin-2-ylethynyl)-3-azabicyclo[3.1.0]hexan-3-yl)picolinonitrile]",< 500
3,"Cc1nc(C#CC23CC2CN(c2cc(F)cc(C#N)c2)C3)cs1 (stereo not drawn) [Example Compound 39, 3-fluoro-5-(1-((2-methylthiazol-4-yl)ethynyl)-3-azabicyclo[3.1.0]hexan-3-yl)benzonitrile]",< 500
4,"O=S(=O)(c1ccccc1F)N1CC2CC2(C#Cc2ccccn2)C1 (stereo not drawn) [Example Compound 42, 3-((2-fluorophenyl)sulfonyl)-1-(pyridin-2-ylethynyl)-3-azabicyclo[3.1.0]hexane]",< 500
5,"Cc1cccc(C#CC23CC2CN(c2cncc(F)c2)C3)n1 (stereo not drawn) [Example Compound 43, 3-(5-fluoropyridin-3-yl)-1-((6-methylpyridin-2-yl)ethynyl)-3-azabicyclo[3.1.0]hexane]",< 500
6,"Cc1cccc(C#CC23CC2CN(C(=O)c2cccc(F)c2)C3)n1 (stereo not drawn) [Example Compound 44, (3-fluorophenyl)-(1-((6-methylpyridin-2-yl)ethynyl)-3-azabicyclo[3.1.0]hexan-3-yl)methanone]",< 500
7,"Fc1cccc(N2CC3CC3(C#Cc3ncccn3)C2)c1 (stereo not drawn) [Example Compound 46, 3-(3-fluorophenyl)-1-(pyrimidin-2-ylethynyl)-3-azabicyclo[3.1.0]hexane]",< 500
8,"Cc1nc(C#CC23CC2CN(c2cncc(F)c2)C3)cs1 (stereo not drawn) [Example Compound 48, 4-((3-(S-fluoropyridin-3-yl)-3-azabicyclo[3.1.0]hexan-1-yl)ethynyl)-2-methylthiazole]",< 500
9,"Cc1nc(C#CC23CC2CN(C(=O)c2cccc(Cl)c2)C3)cs1 (stereo not drawn) [Example Compound 49, (3-chlorophenyl)-(1-((2-methylthiazol-4-yl)ethynyl)-3-azabicyclo[3.1.0]hexan-3-yl)methanone]",< 500
10,"O=C(C1CCCC1)N1C[C@H]2C[C@@]2(C#Cc2ccccn2)C1 [Example Compound 51, cyclopentyl((1R,5S)-1-(pyridin-2-ylethynyl)-3-azabicyclo[3.1.0]hexan-3-yl)methanone]",< 500
11,"COC(=O)N1CC2CC2(C#Cc2ccccn2)C1 (stereo not drawn) [Example Compound 53, methyl 1-(pyridin-2-ylethynyl)-3-azabicyclo[3.1.0]hexane-3-carboxylate]",< 500
12,"O=C(c1cncc(Cl)c1)N1C[C@H]2C[C@@]2(C#Cc2ccccn2)C1 [Example Compound 54, (5-chloropyridin-3-yl)((1R,5S)-1-(pyridin-2-ylethynyl)-3-azabicyclo[3.1.0]hexan-3-yl)methanone]",< 500
13,"O=C(c1cc(Cl)ccn1)N1CC2CC2(C#Cc2ccccn2)C1 (stereo not drawn) [Example Compound 55, (4-chloropyridin-2-yl)-(1-(pyridin-2-ylethynyl)-3-azabicyclo[3.1.0]hexan-3-yl)methanone]",< 500
14,"O=C(c1ccc(Cl)nc1)N1CC2CC2(C#Cc2ccccn2)C1 (stereo not drawn) [Example Compound 56, (6-chloropyridin-3-yl)-(1-(pyridin-2-ylethynyl)-3-azabicyclo[3.1.0]hexan-3-yl)methanone]",< 500
15,"O=C(Nc1ccccc1)N1CC2CC2(C#Cc2ccccn2)C1 (stereo not drawn) [Example Compound 57, N-phenyl-1-(pyridin-2-ylethynyl)-3-azabicyclo[3.1.0]hexane-3-carboxamide]",500 to 1000
16,"CCCNC(=O)N1C[C@H]2C[C@@]2(C#Cc2ccccn2)C1 [Example Compound 58, (1R,5S)—N-propyl-1-(pyridin-2-ylethynyl)-3-azabicyclo[3.1.0]hexane-3-carboxamide]",< 500
17,"O=C(N1CCCC1)N1CC2CC2(C#Cc2ccccn2)C1 (stereo not drawn) [Example Compound 59, (1-(pyridin-2-ylethynyl)-3-azabicyclo[3.1.0]hexan-3-yl)(pyrrolidin-1-yl)methanone]",< 500
18,"O=C(NCC(F)(F)F)N1CC2CC2(C#Cc2ccccn2)C1 (stereo not drawn) [Example Compound 60, 1-(pyridin-2-yl-ethynyl)-N-(2,2,2-trifluoroethyl)-3-azabicyclo[3.1.0]hexane-3-carboxamide]",< 500
19,"N#Cc1cccc(N2CC3CC3(C#Cc3ncccn3)C2)c1 (stereo not drawn) [Example Compound 62, 3-(1-(pyrimidin-2-ylethynyl)-3-azabicyclo[3.1.0]hexan-3-yl)benzonitrile]",< 500
20,"Cc1cccc(C#CC23CC2CN(C(=O)C(C)C)C3)n1 (stereo not drawn) [Example Compound 64, 2-methyl-1-(1-((6-methylpyridin-2-yl)ethynyl)-3-azabicyclo[3.1.0]hexan-3-yl)propan-1-one]",< 500
21,"CCCCC(=O)N1CC2CC2(C#Cc2csc(C)n2)C1 (stereo not drawn) [Example Compound 67, 1-(1-((2-mehylthyiazol-4-yl)ethynyl)-3-azabicyclo[3.1.0]hexan-3-yl)pentan-1-one]",< 500
22,"Cc1nc(C#CC23CC2CN(C(=O)C(C)C)C3)cs1 (stereo not drawn) [Example Compound 68, 2-methyl-1-(1-((2-methylthiazol-4-yl)ethynyl)-3-azabicyclo[3.1.0]hexan-3-yl)propan-1-one]",< 500
23,"Cc1nc(C#CC23CC2CN(C(=O)C(C)(C)C)C3)cs1 (stereo not drawn) [Example Compound 69, 2,2-dimethyl-1-(1-((2-methylthiazol-4-yl)ethynyl)-3-azabicyclo[3.1.0]hexan-3-yl)propan-1-one]",< 500

# Now from value to compound:
row,IC50 [nM],SMILES
1,< 500,"O=S(=O)(c1cccc(Cl)c1)N1CC2CC2(C#Cc2ccccn2)C1 (stereo not drawn) [Example Compound 34, 3-((3-chlorophenyl)sulfonyl)-1-(pyridin-2-ylethynyl)-3-azabicyclo[3.1.0]hexane]"
2,< 500,"O=S(=O)(c1ccc(Cl)cc1)N1CC2CC2(C#Cc2ccccn2)C1 (stereo not drawn) [Example Compound 35, 3-((4-chlorophenyl)sulfonyl)-1-(pyridin-2-ylethynyl)-3-azabicyclo[3.1.0]hexane]"
3,< 500,"Cc1ccc(S(=O)(=O)N2CC3CC3(C#Cc3ccccn3)C2)cc1 (stereo not drawn) [Example Compound 37, 1-(pyridin-2-ylethynyl)-3-tosyl-3-azabicyclo[3.1.0]hexane]"
4,< 500,"N#Cc1cccc(N2CC3CC3(C#Cc3ccccn3)C2)c1 (stereo not drawn) [Example Compound 40, 3-(1-(pyridin-2-ylethynyl)-3-azabicyclo[3.1.0]hexan-3-yl)benzonitrile]"
5,< 500,"O=C(c1cccc(F)c1)N1CC2CC2(C#Cc2ccccn2)C1 (stereo not drawn) [Example Compound 41, (3-fluorophenyl)-(1-(pyridin-2-ylethynyl)-3-azabicyclo[3.1.0]hexan-3-yl)methanone]"
6,< 500,"Fc1cc(F)cc(N2CC3CC3(C#Cc3ncccn3)C2)c1 (stereo not drawn) [Example Compound 45, 3-(3,5-difluorophenyl)-1-(pyrimidin-2-ylethynyl)-3-azabicyclo[3.1.0]hexane]"
7,< 500,"Cc1nc(C#CC23CC2CN(c2cccc(C#N)c2)C3)cs1 (stereo not drawn) [Example Compound 47, 3-(1-((2-methylthiazol-4-yl)ethynyl)-3-azabicyclo[3.1.0]hexan-3-yl)benzonitrile]"
8,< 500,"N#Cc1cncc(N2CC3CC3(C#Cc3ccccn3)C2)c1 (stereo not drawn) [Example Compound 50, S-(1-(pyridin-2-ylethynyl)-3-azabicyclo[3.1.0]hexan-3-yl)nicotinonitrile]"
9,< 500,"CC(C)(C)C(=O)N1C[C@H]2C[C@@]2(C#Cc2ccccn2)C1 [Example Compound 52, 2,2-dimethyl-1-((1R,5S)-1-(pyridin-2-ylethynyl)-3-azabicyclo[3.1.0]hexan-3-yl)propan-1-one]"
10,500 to 1000,"O=C(c1cccc(Cl)c1)N1CC2CC2(C#Cc2ncccn2)C1 (stereo not drawn) [Example Compound 61, (3-chlorophenyl)-(1-(pyrimidin-2-ylethynyl)-3-azabicyclo[3.1.0]hexan-3-yl)methanone]"
11,< 500,"Fc1cncc(N2CC3CC3(C#Cc3ncccn3)C2)c1 (stereo not drawn) [Example Compound 63, 3-(5-fluoropyridin-3-yl)-1-(pyrimidin-2-ylethynyl)-3-azabicyclo[3.1.0]hexane]"
12,< 500,"CC(C)C(=O)N1CC2CC2(C#Cc2cccc(Cl)n2)C1 (stereo not drawn) [Example Compound 65, 1-(1-((6-chloropyridin-2-yl)ethynyl)-3-azabicyclo[3.1.0]hexan-3-yl)-2-methylpropan-1-one]"
13,< 500,"Cc1nc(C#CC23CC2CN(C(=O)c2ccccc2)C3)cs1 (stereo not drawn) [Example Compound 66, (1-((2-methylthiazol-4-yl)ethynyl)-3-azabicyclo[3.1.0]hexan-3-yl)(phenyl)methanone]"
